Experimental data published in ChEMBL document CHEMBL1141715, “Novel BK channel openers containing dehydroabietic acid skeleton: structure-activity relationship for peripheral substituents on ring C” (Bioorg Med Chem Lett, 2008).

These compounds were tested against Calcium-activated potassium channel subunit alpha-1 (Homo sapiens) (UniProt Q12791) (assay: Channel opening activity at human BKalpha channel expressed in CHOK1 cells assessed as ionic current amplitude at 30 uM at holding potential of -90 mV by population patch clamp technique relative to untreated control). Settings: CHO-K1.
Chain of Calcium-activated potassium channel subunit alpha-1 (Homo sapiens) (Q12791 whole entry): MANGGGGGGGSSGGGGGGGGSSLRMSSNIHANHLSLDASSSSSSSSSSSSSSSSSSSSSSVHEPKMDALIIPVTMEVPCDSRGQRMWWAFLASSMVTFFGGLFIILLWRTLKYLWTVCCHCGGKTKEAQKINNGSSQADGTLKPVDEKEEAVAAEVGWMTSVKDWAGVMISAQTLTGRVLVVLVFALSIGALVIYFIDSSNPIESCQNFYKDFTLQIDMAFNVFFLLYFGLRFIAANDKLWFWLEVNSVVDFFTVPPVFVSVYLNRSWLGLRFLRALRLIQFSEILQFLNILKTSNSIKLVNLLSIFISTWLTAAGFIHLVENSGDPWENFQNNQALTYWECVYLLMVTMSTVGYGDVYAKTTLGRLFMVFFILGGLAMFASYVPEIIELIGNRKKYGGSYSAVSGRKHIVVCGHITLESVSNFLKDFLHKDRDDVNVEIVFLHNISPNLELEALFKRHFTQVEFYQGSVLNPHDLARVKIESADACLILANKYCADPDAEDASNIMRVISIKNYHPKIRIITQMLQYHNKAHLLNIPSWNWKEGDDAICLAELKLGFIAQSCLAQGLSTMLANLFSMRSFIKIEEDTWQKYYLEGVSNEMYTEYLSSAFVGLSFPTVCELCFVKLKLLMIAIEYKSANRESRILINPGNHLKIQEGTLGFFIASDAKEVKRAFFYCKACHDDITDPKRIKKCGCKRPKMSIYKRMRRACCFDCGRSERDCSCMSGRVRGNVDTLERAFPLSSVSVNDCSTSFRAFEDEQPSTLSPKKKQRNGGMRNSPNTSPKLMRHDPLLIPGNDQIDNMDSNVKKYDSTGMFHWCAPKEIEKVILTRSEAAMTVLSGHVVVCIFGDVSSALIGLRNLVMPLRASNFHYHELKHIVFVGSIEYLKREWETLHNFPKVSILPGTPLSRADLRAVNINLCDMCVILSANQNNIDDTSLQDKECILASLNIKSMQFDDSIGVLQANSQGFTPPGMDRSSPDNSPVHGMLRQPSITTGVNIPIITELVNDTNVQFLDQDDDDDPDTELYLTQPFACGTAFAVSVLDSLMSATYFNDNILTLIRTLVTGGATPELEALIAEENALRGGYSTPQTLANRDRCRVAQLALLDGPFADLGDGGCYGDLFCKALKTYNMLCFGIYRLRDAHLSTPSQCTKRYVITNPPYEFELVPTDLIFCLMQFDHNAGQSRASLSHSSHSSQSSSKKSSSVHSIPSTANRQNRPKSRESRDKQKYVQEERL
Assay type: cell-based
`CCC(=O)Nc1cc2c(cc1C(C)C)CC[C@H]1[C@](C)(C(=O)O)CCC[C@]21C` gave an Activity of 90.2%. Compound `CC(C)c1cc2c(cc1NC(=O)c1ccccc1C(F)(F)F)[C@@]1(C)CCC[C@@](C)(C(=O)O)[C@@H]1CC2` has an Activity of 59.4%. For `CC(C)c1cc2c(cc1N)[C@@]1(C)CCC[C@@](C)(C(=O)O)[C@@H]1CC2`, the Activity was 88.9%. `CC(C)c1cc2c(cc1NC(=O)c1ccc(Cl)cc1)[C@@]1(C)CCC[C@@](C)(C(=O)O)[C@@H]1CC2` gave an Activity of 108%. Compound `CC(C)c1cc2c(cc1NC(=O)Nc1ccccc1C(F)(F)F)[C@@]1(C)CCC[C@@](C)(C(=O)O)[C@@H]1CC2` has an Activity of 114%. In the case of `CC(C)Oc1cc2c(cc1C(C)C)CC[C@H]1[C@](C)(C(=O)O)CCC[C@]21C`, the Activity is reported as 125%. With `CCCOc1cc2c(cc1C(C)C)CC[C@H]1[C@](C)(C(=O)O)CCC[C@]21C` the Activity was 118%. Work on `COc1cc2c(cc1C(C)C)CC[C@H]1[C@](C)(C(=O)O)CCC[C@]21C` yielded an Activity of 85.9%. `CC(C)c1cc2c(cc1NC(=O)Nc1cc(C(F)(F)F)cc(C(F)(F)F)c1)[C@@]1(C)CCC[C@@](C)(C(=O)O)[C@@H]1CC2` showed an Activity of 132%. `CC(C)c1cc2c(cc1OCCCc1ccccc1)[C@@]1(C)CCC[C@@](C)(C(=O)O)[C@@H]1CC2` was tested, and the Activity was 93.2%. For `CC(C)c1cc2c(cc1NC(=O)Nc1cccc(C(F)(F)F)c1)[C@@]1(C)CCC[C@@](C)(C(=O)O)[C@@H]1CC2`, the Activity was 99.9%. Work on `CC(C)c1c([N+](=O)[O-])cc2c(c1[N+](=O)[O-])CC[C@H]1[C@](C)(C(=O)O)CCC[C@]21C` yielded an Activity of 200%. For `CC(C)c1cc2c(cc1NC(=O)C1CC1)[C@@]1(C)CCC[C@@](C)(C(=O)O)[C@@H]1CC2`, the Activity was 91.6%. `CC(C)c1cc2c(cc1NC(=O)Nc1cccc(Cl)c1)[C@@]1(C)CCC[C@@](C)(C(=O)O)[C@@H]1CC2` was tested, and the Activity was 136%. `CC(C)c1cc2c(cc1NC(=O)c1cccc(C(F)(F)F)c1)[C@@]1(C)CCC[C@@](C)(C(=O)O)[C@@H]1CC2` was tested, and the Activity was 92.5%. For `CC(C)c1ccc2c(c1N)CC[C@H]1[C@](C)(C(=O)O)CCC[C@]21C`, the Activity was 88.2%. For `CC(C)c1cc2c(cc1NC(=O)Cc1ccccc1)[C@@]1(C)CCC[C@@](C)(C(=O)O)[C@@H]1CC2`, the Activity was 90.9%. `CC(C)c1cc2c(cc1NC(=O)CN1CCCCC1)[C@@]1(C)CCC[C@@](C)(C(=O)O)[C@@H]1CC2` gave an Activity of 107%. With `CC(C)C(=O)Nc1cc2c(cc1C(C)C)CC[C@H]1[C@](C)(C(=O)O)CCC[C@]21C` the Activity was 130%. For `COc1ccc(NC(=O)Nc2cc3c(cc2C(C)C)CC[C@H]2[C@](C)(C(=O)O)CCC[C@]32C)cc1`, the Activity was 107%. Work on `CCCCCCCCCCCC(=O)Nc1cc2c(cc1C(C)C)CC[C@H]1[C@](C)(C(=O)O)CCC[C@]21C` yielded an Activity of 103%. `CC(C)c1cc2c(cc1O)[C@@]1(C)CCC[C@@](C)(C(=O)O)[C@@H]1CC2` gave an Activity of 83%. Work on `CC(C)c1cc2c(cc1NC(=O)Nc1ccc(Cl)c(C(F)(F)F)c1)[C@@]1(C)CCC[C@@](C)(C(=O)O)[C@@H]1CC2` yielded an Activity of 168%. `CC(C)c1cc2c(cc1NC(=O)Nc1ccccc1)[C@@]1(C)CCC[C@@](C)(C(=O)O)[C@@H]1CC2` gave an Activity of 72.7%. Work on `COc1ccc(C(=O)Nc2cc3c(cc2C(C)C)CC[C@H]2[C@](C)(C(=O)O)CCC[C@]32C)cc1` yielded an Activity of 94.1%. `CC(C)c1cc2c(cc1NC(=O)c1ccccc1)[C@@]1(C)CCC[C@@](C)(C(=O)O)[C@@H]1CC2` was tested, and the Activity was 90%. Work on `CC(C)c1c(N)cc2c(c1N)CC[C@H]1[C@](C)(C(=O)O)CCC[C@]21C` yielded an Activity of 110%. `CC(C)c1cc2c(cc1NC(=O)Nc1ccc(C(F)(F)F)cc1)[C@@]1(C)CCC[C@@](C)(C(=O)O)[C@@H]1CC2` was tested, and the Activity was 138%. Work on `CC(C)c1cc2c(cc1OCc1ccc(Cl)cc1)[C@@]1(C)CCC[C@@](C)(C(=O)O)[C@@H]1CC2` yielded an Activity of 91.6%. `CC(=O)Nc1cc2c(cc1C(C)C)CC[C@H]1[C@](C)(C(=O)O)CCC[C@]21C` gave an Activity of 96.1%. In the case of `CC(C)c1cc2c(cc1OCc1ccccc1)[C@@]1(C)CCC[C@@](C)(C(=O)O)[C@@H]1CC2`, the Activity is reported as 89.5%. In the case of `CCNC(=O)Nc1cc2c(cc1C(C)C)CC[C@H]1[C@](C)(C(=O)O)CCC[C@]21C`, the Activity is reported as 89.9%. For `CC(C)c1cc2c(cc1NC(=O)c1ccc(F)cc1)[C@@]1(C)CCC[C@@](C)(C(=O)O)[C@@H]1CC2`, the Activity was 83.4%. Work on `CC(C)c1cc2c(cc1NC(=O)Nc1ccc(F)c(Cl)c1)[C@@]1(C)CCC[C@@](C)(C(=O)O)[C@@H]1CC2` yielded an Activity of 156%. Compound `CC(C)c1cc2c(cc1NC(=S)Nc1cc(C(F)(F)F)cc(C(F)(F)F)c1)[C@@]1(C)CCC[C@@](C)(C(=O)O)[C@@H]1CC2` has an Activity of 240%. With `CC(C)c1cc2c(cc1NC(=O)Nc1cc(Cl)cc(Cl)c1)[C@@]1(C)CCC[C@@](C)(C(=O)O)[C@@H]1CC2` the Activity was 151%. With `CC(C)c1cc2c(cc1NC(=O)Nc1cc(C(F)(F)F)ccc1Cl)[C@@]1(C)CCC[C@@](C)(C(=O)O)[C@@H]1CC2` the Activity was 128%. `COc1ccccc1C(=O)Nc1cc2c(cc1C(C)C)CC[C@H]1[C@](C)(C(=O)O)CCC[C@]21C` was tested, and the Activity was 86.5%. Compound `CCCC(=O)Nc1cc2c(cc1C(C)C)CC[C@H]1[C@](C)(C(=O)O)CCC[C@]21C` has an Activity of 92.4%. Work on `CC(C)c1cc2c(cc1NC(=O)C1CCCCC1)[C@@]1(C)CCC[C@@](C)(C(=O)O)[C@@H]1CC2` yielded an Activity of 95.9%. `CCCCCCCCCOc1cc2c(cc1C(C)C)CC[C@H]1[C@](C)(C(=O)O)CCC[C@]21C` showed an Activity of 81.8%. Work on `CC(C)c1cc2c(cc1NC(=O)c1cc(C(F)(F)F)cc(C(F)(F)F)c1)[C@@]1(C)CCC[C@@](C)(C(=O)O)[C@@H]1CC2` yielded an Activity of 81.8%. With `COc1ccc(Cl)cc1NC(=O)Nc1cc2c(cc1C(C)C)CC[C@H]1[C@](C)(C(=O)O)CCC[C@]21C` the Activity was 94.4%. With `CC(C)c1cc2c(cc1NC(=S)Nc1cccc(C(F)(F)F)c1)[C@@]1(C)CCC[C@@](C)(C(=O)O)[C@@H]1CC2` the Activity was 143%. `CC(C)c1c(Cl)cc2c(c1Cl)CC[C@H]1[C@](C)(C(=O)O)CCC[C@]21C` was tested, and the Activity was 180%. `CCCCCCOc1cc2c(cc1C(C)C)CC[C@H]1[C@](C)(C(=O)O)CCC[C@]21C` gave an Activity of 78.7%. In the case of `CC(C)c1cc2c(cc1NC(=O)Nc1ccc(F)c(F)c1)[C@@]1(C)CCC[C@@](C)(C(=O)O)[C@@H]1CC2`, the Activity is reported as 139%. In the case of `CC(C)c1cc2c(cc1NC(=O)c1ccc(C(F)(F)F)cc1)[C@@]1(C)CCC[C@@](C)(C(=O)O)[C@@H]1CC2`, the Activity is reported as 128%. Work on `CC(C)c1cc2c(cc1OCc1ccc3ccccc3c1)[C@@]1(C)CCC[C@@](C)(C(=O)O)[C@@H]1CC2` yielded an Activity of 83.7%.
